Data as given in ChEMBL document CHEMBL1770144, “Discovery of potent nucleotide-mimicking competitive inhibitors of hepatitis C virus NS3 helicase” (Bioorg Med Chem Lett, 2011).
pKi: −log10 of the molar value.

Assay: Competitive inhibition of Hepatitis C virus NS3 helicase using nucleic acid as substrate
Design: species or system Hepacivirus hominis

In the case of `CCOc1ccc2c(NNC(=O)c3cnccn3)c3c(nc2c1)CCCC3`, the pKi was 7.70.

Assay: Competitive inhibition of Hepatitis C virus NS3 helicase
Design: species or system Hepacivirus hominis

Compared with `CCOc1ccc2c(NNS(=O)(=O)c3ccccc3)c3c(nc2c1)CCCC3`, `CCOc1ccc2c(NNS(=O)(=O)c3ccccn3)c3c(nc2c1)CCCC3` is 0.20 log units higher in pKi: 6.80 for the first, 7.00 for the second.

First: CCOc1ccc2c(NNC(=O)c3cc4ccccc4cn3)cc(C)nc2c1
Second: CCOc1ccc2c(NNC(=O)c3ccccc3)cc(C)nc2c1
The pKi of the first is 0.30 log units lower: 3.60 for the first, 3.90 for the second.

Compared with `CCOc1ccc2c(NNS(=O)(=O)c3ccc(C)cc3)cc(C)nc2c1`, `CCOc1ccc2c(NNS(=O)(=O)c3ccccc3)cc(C)nc2c1` is 1.18 log units higher in pKi: 4.12 for the first, 5.30 for the second. The second binds more tightly here.

Going from `O=C(NNc1c2c(nc3ccccc13)CCCC2)c1cnccn1` to `CCOc1ccc2c(NNC(=O)c3cnccn3)c3c(nc2c1)CCCC3`, the pKi rises from < 3.52 to 7.70. The second binds more tightly here.

Going from `CCOc1ccc2c(NNC(=O)c3ccco3)cc(C)nc2c1` to `CCOc1ccc2c(NNC(=O)c3cnccn3)cc(C)nc2c1`, the pKi rises from < 3.52 to 6.12.

Going from `CCOc1ccc2c(NNS(=O)(=O)c3ccccn3)cc(C)nc2c1` to `CCOc1ccc2nc(C)cc(NNC(=O)c3cnccn3)c2c1`, the pKi falls from 6.52 to < 3.52.

`CCOc1ccc2c(NNC(=O)[C@@H]3CSCN3)cc(C)nc2c1` and `Cc1cc(NNC(=O)c2cnccn2)c2ccccc2n1` cannot be ordered by pKi: < 3.52 for the first, < 3.52 for the second.
